Values quoted from earlier work, collected in patent US20200319191A1, “MOLECULAR PROFILING FOR CANCER” (Caris MPI, Inc., priority 2015, published 2020).
Like-named read-outs stand apart in the source and are kept apart here.

Conditions: for Evid. Level, ER Positive (IHC) / Bene. Level, ER Positive (IHC): Hormonal Agents; for sensitivity of AML tumor cells by NPM status: AML tumor cells with mutant NPM; for resistance by ALK secondary mutations: ALK secondary mutations found in NSCLC; for sensitivity by EGFRvIII expression: preliminary studies; for PGP Positive (IHC) Evid. Level: taxanes rule, Ref. No. 28; for Bene. Level, PGP Positive (IHC) / Evid. Level, PGP Positive (IHC): Anthracyclines
[1] = IHC positive: TLE3 F, TUBB3 F, PGP F
[2] = IHC positive: TLE3 F, TUBB3 F, PGP T
[3] = IHC positive: TLE3 F, TUBB3 No Data, PGP F
[4] = IHC positive: TLE3 F, TUBB3 No Data, PGP T
[5] = IHC positive: TLE3 F, TUBB3 T, PGP F
[6] = IHC positive: TLE3 F, TUBB3 T, PGP T
[7] = IHC positive: TLE3 No Data, TUBB3 F, PGP F
[8] = IHC positive: TLE3 No Data, TUBB3 F, PGP T
[9] = IHC positive: TLE3 No Data, TUBB3 No Data, PGP F
[10] = IHC positive: TLE3 No Data, TUBB3 No Data, PGP T
[11] = IHC positive: TLE3 No Data, TUBB3 T, PGP F
[12] = IHC positive: TLE3 No Data, TUBB3 T, PGP T
[13] = IHC positive: TLE3 T, TUBB3 F, PGP F
[14] = IHC positive: TLE3 T, TUBB3 F, PGP T
[15] = IHC positive: TLE3 T, TUBB3 No Data, PGP F
[16] = IHC positive: TLE3 T, TUBB3 No Data, PGP T
[17] = IHC positive: TLE3 T, TUBB3 T, PGP F
[18] = IHC positive: TLE3 T, TUBB3 T, PGP T

SMILES: CC(C)(C#N)c1cc(Cn2cncn2)cc(C(C)(C)C#N)c1 [anastrozole]
- Evid. Level, ER Positive (IHC) (ER Positive (IHC)=F): 1
- Bene. Level, ER Positive (IHC) (ER Positive (IHC)=T): 1
- Evid. Level, ER Positive (IHC) (ER Positive (IHC)=T): 1

SMILES: CC[C@@]1(O)C(=O)OCc2c1cc1n(c2=O)Cc2cc3ccccc3nc2-1 [camptothecin]
- sensitivity of AML tumor cells by NPM status: research shows AML tumor cells with mutant NPM are more sensitive to

SMILES: Cc1cc(Nc2ncc(Cl)c(Nc3ccccc3S(=O)(=O)C(C)C)n2)c(OC(C)C)cc1C1CCNCC1 [ceritinib]
- resistance by ALK secondary mutations: mutations found in NSCLC have been associated with acquired resistance to ALK

SMILES: C[C@@H](Oc1cc(-c2cnn(C3CCNCC3)c2)cnc1N)c1c(Cl)ccc(F)c1Cl [crizotinib]
- resistance by ALK secondary mutations: mutations found in NSCLC have been associated with acquired resistance to ALK
- sensitivity and response by ROS1 status (ROS-rearranged NSCLC patients, clinical data): improved response to the MET/ALK/ROS inhibitor, crizotinib.

SMILES: COc1cc2ncnc(Nc3ccc(F)c(Cl)c3)c2cc1NC(=O)/C=C/CN1CCCCC1 [dacomitinib]
- sensitivity by EGFRvIII expression: higher sensitivity to erlotinib and gefitinib, as well as to pan-Her inhibitors including

SMILES: COc1cccc2c1C(=O)c1c(O)c3c(c(O)c1C2=O)C[C@@](O)(C(C)=O)C[C@@H]3O[C@H]1C[C@H](N)[C@H](O)[C@H](C)O1 [daunorubicin]
- sensitivity of AML tumor cells by NPM status: research shows AML tumor cells with mutant NPM are more sensitive to

SMILES: CC(=O)O[C@@]12CO[C@@H]1C[C@H](O)[C@@]1(C)C(=O)[C@H](O)C3=C(C)[C@@H](OC(=O)[C@H](O)[C@@H](NC(=O)OC(C)(C)C)c4ccccc4)C[C@@](O)([C@@H](OC(=O)c4ccccc4)[C@H]21)C3(C)C [docetaxel]
- PGP Positive (IHC) Bene. Level [1]: 1
- PGP Positive (IHC) Bene. Level [2]: 2
- PGP Positive (IHC) Bene. Level [3]: 1
- PGP Positive (IHC) Bene. Level [4]: 3
- PGP Positive (IHC) Bene. Level [5]: 1
- PGP Positive (IHC) Bene. Level [6]: 3
- PGP Positive (IHC) Bene. Level [7]: 1
- PGP Positive (IHC) Bene. Level [8]: 2
- PGP Positive (IHC) Bene. Level [9]: 1
- PGP Positive (IHC) Bene. Level [10]: 3
- PGP Positive (IHC) Bene. Level [11]: 1
- PGP Positive (IHC) Bene. Level [12]: 3
- PGP Positive (IHC) Bene. Level [13]: 1
- PGP Positive (IHC) Bene. Level [14]: 2
- PGP Positive (IHC) Bene. Level [15]: 1
- PGP Positive (IHC) Bene. Level [16]: 2
- PGP Positive (IHC) Bene. Level [17]: 1
- PGP Positive (IHC) Bene. Level [18]: 2
- PGP Positive (IHC) Evid. Level: 3

SMILES: COc1cccc2c1C(=O)c1c(O)c3c(c(O)c1C2=O)C[C@@](O)(C(=O)CO)C[C@@H]3O[C@H]1C[C@H](N)[C@H](O)[C@H](C)O1 [doxorubicin, reference compound]
- Bene. Level, PGP Positive (IHC) (PGP Positive (IHC)=F): 1
- Evid. Level, PGP Positive (IHC) (PGP Positive (IHC)=F): 2
- Bene. Level, PGP Positive (IHC) (PGP Positive (IHC)=T): 2
- Evid. Level, PGP Positive (IHC) (PGP Positive (IHC)=T): 2

SMILES: CNC(=O)c1ccc(N2C(=S)N(c3ccc(C#N)c(C(F)(F)F)c3)C(=O)C2(C)C)cc1F [enzalutamide]
- resistance by AR mutations (specific mutations in AR (e.g. F876L, AR-V7)): F876L, AR-V7) are associated with resistance to newer-generation, AR-targeted therapies

SMILES: COc1cccc2c1C(=O)c1c(O)c3c(c(O)c1C2=O)C[C@@](O)(C(=O)CO)C[C@@H]3O[C@H]1C[C@H](N)[C@@H](O)[C@H](C)O1 [epirubicin]
- Bene. Level, PGP Positive (IHC) (PGP Positive (IHC)=F): 1
- Evid. Level, PGP Positive (IHC) (PGP Positive (IHC)=F): 2
- Bene. Level, PGP Positive (IHC) (PGP Positive (IHC)=T): 2
- Evid. Level, PGP Positive (IHC) (PGP Positive (IHC)=T): 2

SMILES: C#Cc1cccc(Nc2ncnc3cc(OCCOC)c(OCCOC)cc23)c1 [erlotinib]
- sensitivity by EGFRvIII expression: higher sensitivity to erlotinib and gefitinib, as well as to pan-Her inhibitors including
- response by EGFR secondary mutation (T790M in exon 20): mutation, T790M in exon 20, confers reduced response. Non-small cell lung cancer cancer
- sensitivity by EGFR gain-of-function mutations (in-frame deletions in exon 19 or point mutations in exon 21): point mutations in exon 21, confer sensitivity to first- and second-generation tyrosine

SMILES: CO[C@H]1C[C@@H]2CC[C@@H](C)[C@@](O)(O2)C(=O)C(=O)N2CCCC[C@H]2C(=O)O[C@H]([C@H](C)C[C@@H]2CC[C@@H](OCCO)[C@H](OC)C2)CC(=O)[C@H](C)/C=C(\C)[C@@H](O)[C@@H](OC)C(=O)[C@H](C)C[C@H](C)/C=C/C=C/C=C/1C [everolimus]
- benefit by PIK3CA status (PIK3CA exon 20 mutations): associated with benefit from mTOR inhibitors (everolimus, temsirolimus). Evidence

SMILES: C=C1C[C@@H]2[C@H](CC[C@]3(C)C(=O)CC[C@@H]23)[C@@]2(C)C=CC(=O)C=C12 [exemestane]
- Evid. Level, ER Positive (IHC) (ER Positive (IHC)=F): 1
- Bene. Level, ER Positive (IHC) (ER Positive (IHC)=T): 1
- Evid. Level, ER Positive (IHC) (ER Positive (IHC)=T): 1

SMILES: C[C@]12CC[C@@H]3c4ccc(O)cc4C[C@@H](CCCCCCCCC[S+]([O-])CCCC(F)(F)C(F)(F)F)[C@H]3[C@@H]1CC[C@@H]2O (some centres unmarked) [fulvestrant]
- Evid. Level, ER Positive (IHC) (ER Positive (IHC)=F): 1
- Bene. Level, ER Positive (IHC) (ER Positive (IHC)=T): 1
- Evid. Level, ER Positive (IHC) (ER Positive (IHC)=T): 1

SMILES: COc1cc2ncnc(Nc3ccc(F)c(Cl)c3)c2cc1OCCCN1CCOCC1 [gefitinib]
- sensitivity by EGFRvIII expression: higher sensitivity to erlotinib and gefitinib, as well as to pan-Her inhibitors including

SMILES: Nc1ccn([C@@H]2O[C@H](CO)[C@@H](O)C2(F)F)c(=O)n1 [gemcitabine]
- resistance by RRM1 level (high RRM1 level): activity. High RRM1 level is associated with resistance to gemcitabine.

SMILES: CCc1c2c(nc3ccc(OC(=O)N4CCC(N5CCCCC5)CC4)cc13)-c1cc3c(c(=O)n1C2)COC(=O)[C@]3(O)CC [irinotecan]
- response by TOPOI expression (expression of TOPOI): DNA molecule. Expression of TOPOI has been associated with response to TOPOI

SMILES: N#Cc1ccc(C(c2ccc(C#N)cc2)n2cncn2)cc1 [letrozole]
- Evid. Level, ER Positive (IHC) (ER Positive (IHC)=F): 1
- Bene. Level, ER Positive (IHC) (ER Positive (IHC)=T): 1
- Evid. Level, ER Positive (IHC) (ER Positive (IHC)=T): 1

SMILES: CC(=O)O[C@]1(C(C)=O)CC[C@H]2[C@@H]3C=C(C)C4=CC(=O)CC[C@]4(C)[C@H]3CC[C@@]21C [megestrol acetate]
- Evid. Level, ER Positive (IHC) (ER Positive (IHC)=F): 1
- Bene. Level, ER Positive (IHC) (ER Positive (IHC)=T): 1
- Evid. Level, ER Positive (IHC) (ER Positive (IHC)=T): 1

SMILES: CCOc1cc2ncc(C#N)c(Nc3ccc(OCc4ccccn4)c(Cl)c3)c2cc1NC(=O)/C=C/CN(C)C [neratinib]
- sensitivity by EGFRvIII expression: higher sensitivity to erlotinib and gefitinib, as well as to pan-Her inhibitors including

SMILES: O=C(O)C(=O)O.[NH-][C@@H]1CCCC[C@H]1[NH-].[Pt+2] [oxaliplatin]
- disease control rate by APC status (APC wild type patients, metastatic setting, colorectal): event in colorectal tumorigenesis. APC wild type patients have shown better disease

SMILES: CC(=O)O[C@H]1C(=O)[C@@]2(C)[C@H]([C@H](OC(=O)c3ccccc3)[C@]3(O)C[C@H](OC(=O)[C@H](O)[C@@H](NC(=O)c4ccccc4)c4ccccc4)C(C)=C1C3(C)C)[C@]1(OC(C)=O)CO[C@@H]1C[C@@H]2O [paclitaxel]
- PGP Positive (IHC) Bene. Level [1]: 1
- PGP Positive (IHC) Bene. Level [2]: 2
- PGP Positive (IHC) Bene. Level [3]: 1
- PGP Positive (IHC) Bene. Level [4]: 3
- PGP Positive (IHC) Bene. Level [5]: 1
- PGP Positive (IHC) Bene. Level [6]: 3
- PGP Positive (IHC) Bene. Level [7]: 1
- PGP Positive (IHC) Bene. Level [8]: 2
- PGP Positive (IHC) Bene. Level [9]: 1
- PGP Positive (IHC) Bene. Level [10]: 3
- PGP Positive (IHC) Bene. Level [11]: 1
- PGP Positive (IHC) Bene. Level [12]: 3
- PGP Positive (IHC) Bene. Level [13]: 1
- PGP Positive (IHC) Bene. Level [14]: 2
- PGP Positive (IHC) Bene. Level [15]: 1
- PGP Positive (IHC) Bene. Level [16]: 2
- PGP Positive (IHC) Bene. Level [17]: 1
- PGP Positive (IHC) Bene. Level [18]: 2
- PGP Positive (IHC) Evid. Level: 3

SMILES: CC/C(=C(\c1ccccc1)c1ccc(OCCN(C)C)cc1)c1ccccc1 [tamoxifen]
- Evid. Level, ER Positive (IHC) (ER Positive (IHC)=F): 1
- Bene. Level, ER Positive (IHC) (ER Positive (IHC)=T): 1
- Evid. Level, ER Positive (IHC) (ER Positive (IHC)=T): 1
